The source of these data is patent US20040106148A1, “Polypeptides” (priority 2000, published 2004).

Test [1] relates to PH domains whose lipid binding properties were investigated in FIG. 2 (GST fusions). Put plainly: Protein-lipid overlay. To be noted: data not shown. The procedure:
(§1) FIG. 2. Phosphoinositide binding properties of the novel PH domains. The ability of the indicated GST fusion proteins to bind a variety of phosphoinositides was analysed using a protein-lipid overlay. Serial dilutions of the indicated phosphoinositides (100 pmol, 50 pmol, 25 pmol, 12.5 pmol, 6.3 pmol, 3.1 pmol and 1.6 pmol) were spotted onto a nitrocellulose membranes which were then incubated with the purified GST fusion proteins. The membranes were washed and the GST-fusion proteins bound to the membrane by virtue of their interaction with lipid were detected using a GST antibody. A representative of at least 3 separate experiments carried out is shown.
(§2) Protein-Lipid overlay. To assess the phosphoinositide binding properties of each PH domain, a protein-lipid overlay assay was performed using the GST fusion proteins as described previously. Briefly, 1 μl of lipid solution containing 1-100 pmol of phospholipids dissolved in a mixture of choroform:methanol:water (1:2:0.8) was spotted onto Hybond-C extra membrane and allowed to dry at room temperature for 1 h. The membrane was blocked in 3% (by mass) fatty acid-free BSA in TBST (50 mM Tris/HCl pH 7.5, 150 mM NaCl and 0.1% Tween-20 (by vol) for lh. The membrane was then incubated overnight at 4° C. with gentle agitation in the same solution containing 0.2 μg/ml of the indicated GST fusion protein. The membranes were washed 6 times over 30 min in TBST and then incubated for 1 h with 1/1000 dilution of anti-GST monoclonal antibody (Sigma). The membranes were washed as before, then incubated for 1 h with 1/5000 dilution of anti-mouse-HRP conjugate (Pierce). Finally, the membranes were washed 12 times over 1 h in TBST and the GST-fusion protein bound to the membrane by virtue of its interaction with phospholipid was detected by enhanced chemiluminescence.

In test [2] the test system is human phospholipase Cδ1 PH domain (residues 20 to 184), GST fusion. Particulars: control; cited from earlier work.
Test [3] has as its target human FAPP1 PH domain (residues 1 to 99), GST fusion (Homo sapiens, UniProt Q9HB20). Put plainly: Protein-lipid overlay. The class given is binding. To be noted: FIG. 2 and Table 2. The procedure:
as §1
(§3) Protein-Lipid overlay. To assess the phosphoinositide binding properties of each PH domain, a protein-lipid overlay assay was performed using the GST fusion proteins as described previously. Briefly, 1 μl of lipid solution containing 1-100 pmol of phospholipids dissolved in a mixture of choroform:methanol:water (1:2:0.8) was spotted onto Hybond-C extra membrane and allowed to dry at room temperature for 1 h. […]

Test [4] concerns 6 of the PH domains identified (GST fusions). The test is described as follows: Phosphoinositide binding of PH domains (protein-lipid overlay or surface plasmon resonance). To be noted: data not shown. The procedure:
as §2, with “chemiluminescence. […]” for “chemiluminescence.”
We studied the specificity and affinity of interaction of the PH domains for phosphoinositide lipids using either a “protein-lipid overlay” assay (FIG. 2) or the more quantitative surface plasmon resonance based approach (Table 2). […]
In general terms: Surface plasmon resonance follows binding to a sensor surface in real time, without labels.

Test [5] deals with T1, human FAPP1 PH domain (residues 1 to 99, accession W32183), GST fusion (Homo sapiens, UniProt Q9HB20).
T1 construct: made in house; host or cells: E. coli BL21 (pGEX4T-1)
The test is described as follows: Surface plasmon resonance (BIACore), GST fusion binding to phosphoinositide in supported lipid monolayer. To be noted: supported phosphatidylcholine monolayers, 1:1 binding model, NB, no binding detected, read-out: Apparent Kd. The source says: (§4) Cloning of PH domains and preparation of expression constructs. All the human and mouse EST's were obtained from the I.M.A.G.E. Consortium and sequenced. The plant EST (accession number T04439) encoding a full length clone of AtPH1 was obtained from the Arabidopsis Biological Research. Centre (Ohio University). The sequence of each EST was verified and the full length PH domain of each EST was amplified by PCR using the Hi-fidelity PCR system with primers designed to incorporate a Kozak site, an initiating ATG codon followed by a myc epitope tag and a stop codon after the PH domain. […]
Expression of GST-PH domains in E.coli. The pGEX4T-1 constructs encoding the PH domains of FAPP1, AtPH1, PEPP1, LL5α, LL5β, evectin-2 and PH30 were transformed into BL21 E.coli cells and a 0.5 L culture was grown at 37° C. in Luria Broth containing 100 μg/ml ampicillin, until the absorbance at 600 nm was 0.6. […]
Kinetic analyses of the interactions between the GST PH domain fusions and the polyphosphoinositides were made using surface plasmon resonance based procedures as described previously, with the following modifications. […] Data were analysed using the bimolecular interaction model and the global fitting feature of the BIAevaluation 3 software for several sensorgrams at different protein concentrations. […]

The target in test [6] is human FAPP2 (accession AF380162), GST fusion (Homo sapiens, UniProt Q96JA3). Put plainly: Protein-lipid overlay. The class given is binding. To be noted: FIG. 11. The protocol: as §1
Methods used are equivalent to those specified in the legend to FIG. 2.
as §3

The next test deals with GST-DAPP1. To be noted: control; cited from earlier work.
Test [7] addresses T2, mouse TAPP2 C-terminal PH domain (residues 174 to 425), GST fusion (Mus musculus, UniProt Q9ERS5).
T2 construct: made in house; host or cells: human embryonic kidney 293 cells (pEBG-2T)
The test is described as follows: Protein-lipid overlay. The class given is binding. To be noted: protein-lipid overlay (FIG. 2). The procedure: as §1
(§5) FIG. 4. Comparison of the phosphoinositide binding properties of the N-terminal and C-terminal PH domains of TAPP1 and TAPP2. The ability of wild type and mutant forms of full length (FL) and isolated N-terminal (NT) and C-terminal (CT) PH domains of TAPP1 and TAPP2 GST-fusion proteins to interact with phosphoinositides were analysed using a protein-lipid overlay. Serial dilutions of the indicated phosphoinositides (100 pmol, 50 pmol, 25 pmol, 12.5 pmol, 6.3 pmol, 3.1 pmol and 1.6 pmol) were spotted onto a nitrocellulose membrane which was then incubated with the indicated purified GST fusion proteins. The membranes were washed and the GST-fusion proteins bound to the membrane by virtue of their interactions with lipid were detected using a GST antibody. A representative experiment of three is shown. The isolated N-terminal PH domain of human TAPP1 comprises residues 1 to 147, the isolated C-terminal PH domain of human TAPP1 comprises residues 95 to 404, the isolated N-terminal PH domain of mouse TAPP2 comprises residues 1 to 131 and the isolated C-terminal PH of mouse TAPP2 comprises residues 174 to 425.
as §2, with “Briefly, 1 μl of lipid solution containing 1-100 pmol of phospholipids dissolved in a mixture of choroform:methanol:water (1:2:0.8) was spotted onto Hybond-C extra membrane and allowed to dry at room temperature for 1 h.” left out

In test [8] the target is human TAPP1 C-terminal PH domain (residues 95 to 404), GST fusion (Homo sapiens, UniProt Q9HB21). The test is described as follows: Protein-lipid overlay. The class given is binding. Particulars: protein-lipid overlay (FIG. 2). The protocol:
as §1, §5
as §2, with “Briefly, 1 μl of lipid solution containing 1-100 pmol of phospholipids dissolved in a mixture of choroform:methanol:water (1:2:0.8) was spotted onto Hybond-C extra membrane and allowed to dry at room temperature for 1 h.” left out

Another test has as its system GST-GRP1. To be noted: control; cited from earlier work.
Test [9] addresses human evectin-2 PH domain (residues 1 to 167), GST fusion (Homo sapiens, UniProt Q96CS7). The test is described as follows: Protein-lipid overlay. Particulars: FIG. 2. It counts as binding. The protocol: as §1, §4

Chain of human FAPP2 (accession AF380162), GST fusion (Q96JA3 whole entry, the tested form may be a part): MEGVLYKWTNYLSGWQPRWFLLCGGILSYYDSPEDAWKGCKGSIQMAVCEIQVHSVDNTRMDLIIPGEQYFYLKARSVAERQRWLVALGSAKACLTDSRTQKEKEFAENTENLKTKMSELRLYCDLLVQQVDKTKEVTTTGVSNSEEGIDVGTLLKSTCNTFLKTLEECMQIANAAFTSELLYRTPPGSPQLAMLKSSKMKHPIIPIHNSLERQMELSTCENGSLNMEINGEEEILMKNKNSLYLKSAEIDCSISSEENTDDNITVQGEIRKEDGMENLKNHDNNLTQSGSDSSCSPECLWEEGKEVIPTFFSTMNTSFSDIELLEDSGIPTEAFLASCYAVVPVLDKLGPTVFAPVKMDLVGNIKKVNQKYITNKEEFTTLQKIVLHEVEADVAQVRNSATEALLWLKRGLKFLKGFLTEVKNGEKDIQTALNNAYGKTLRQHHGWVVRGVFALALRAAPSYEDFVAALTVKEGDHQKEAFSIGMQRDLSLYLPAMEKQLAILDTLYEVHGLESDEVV
Chain of human FAPP1 PH domain (residues 1 to 99), GST fusion (Q9HB20 1-99): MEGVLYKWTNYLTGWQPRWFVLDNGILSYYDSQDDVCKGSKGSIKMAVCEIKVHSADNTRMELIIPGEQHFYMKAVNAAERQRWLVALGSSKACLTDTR
T2 sequence (Q9ERS5 174-425): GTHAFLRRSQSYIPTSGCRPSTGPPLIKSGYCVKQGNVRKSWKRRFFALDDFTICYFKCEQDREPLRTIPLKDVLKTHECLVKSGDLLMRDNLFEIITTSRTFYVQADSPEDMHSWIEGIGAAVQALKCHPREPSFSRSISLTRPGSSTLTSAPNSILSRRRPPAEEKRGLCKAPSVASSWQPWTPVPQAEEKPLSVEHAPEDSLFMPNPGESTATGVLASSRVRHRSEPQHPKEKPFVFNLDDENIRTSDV
Chain of human evectin-2 PH domain (residues 1 to 167), GST fusion (Q96CS7 1-167): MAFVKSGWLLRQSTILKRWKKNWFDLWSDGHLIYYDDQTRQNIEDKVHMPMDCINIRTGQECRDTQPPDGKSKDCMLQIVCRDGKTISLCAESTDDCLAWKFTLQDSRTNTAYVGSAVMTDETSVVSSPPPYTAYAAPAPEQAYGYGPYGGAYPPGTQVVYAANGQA
Chain of human TAPP1 C-terminal PH domain (residues 95 to 404), GST fusion (Q9HB21 95-404): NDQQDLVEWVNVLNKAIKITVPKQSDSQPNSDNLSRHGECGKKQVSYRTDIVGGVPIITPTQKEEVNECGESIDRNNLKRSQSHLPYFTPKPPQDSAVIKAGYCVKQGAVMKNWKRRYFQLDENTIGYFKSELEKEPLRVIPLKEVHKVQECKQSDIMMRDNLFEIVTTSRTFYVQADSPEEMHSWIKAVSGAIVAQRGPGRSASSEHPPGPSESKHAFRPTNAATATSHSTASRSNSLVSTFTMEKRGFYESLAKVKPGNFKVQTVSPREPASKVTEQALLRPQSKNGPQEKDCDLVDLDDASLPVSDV
T1 sequence (Q9HB20 1-99, one chain of several): as the sequence (Q9HB20 1-99) above

Turning to phospatidylinositol, the lipid binding entry in test [1] is on record as “None of the PH domains whose lipid binding properties were investigated in FIG. 2, interacted”.

Consider `CCCCCCCCCCCCCCCC(=O)OC[C@H](COP(=O)(O)O[C@@H]1[C@H](O)[C@H](O)[C@@H](OP(=O)(O)O)[C@H](OP(=O)(O)O)[C@H]1O)OC(=O)CCCCCCCCCCCCCCC` [PtdIns(4,5)P2, phosphatidylinositol 4,5-bisphosphate], for which the phosphoinositide binding entry in test [2] is “binds only”; in [3], “does not interact”.

In the case of phosphatidylcholine, the lipid binding result in test [1] is reported as “None of the PH domains whose lipid binding properties were investigated in FIG. 2, interacted”.

For the compound `CCCCC/C=C\C/C=C\C/C=C\C/C=C\CCCC(=O)O[C@H](COC(=O)CCCCCCCCCCCCCCCCC)COP(=O)(O)O[C@H]1[C@H](O)[C@@H](OP(=O)(O)O)[C@H](OP(=O)(O)O)[C@@H](OP(=O)(O)O)[C@H]1O` [sn-1-stearoyl-2-arachidonyl-D-PtdIns(3,4,5)P3], the phosphoinositide binding result in test [4] is recorded as “did not bind”.

In the case of `CCCCCCCCCCCCCCCC(=O)OC[C@H](COP(=O)(O)O[C@H]1[C@H](O)[C@@H](O)[C@H](OP(=O)(O)O)[C@@H](O)[C@H]1O)OC(=O)CCCCCCCCCCCCCCC` [PtdIns4P, phosphoinositol 4-monophosphate], in test [5], the Kd is 0.02 µM. For the same compound, the values for the phosphoinositide binding entry in test [6], in test [6] (listed as PtdIns-4P) and in test [3] were “binds specifically”, “specifically binds” and “only binds”, respectively.

For the compound phosphatidylserine, the lipid binding entry in test [1] is given as “None of the PH domains whose lipid binding properties were investigated in FIG. 2, interacted”.

Turning to phosphatidylethanolamine, the lipid binding result in test [1] is “None of the PH domains whose lipid binding properties were investigated in FIG. 2, interacted”.

In the case of `CCCCCCCCCCCCCCCC(=O)OC[C@H](COP(=O)(O)O[C@H]1[C@H](O)[C@@H](OP(=O)(O)O)[C@H](OP(=O)(O)O)[C@@H](OP(=O)(O)O)[C@H]1O)OC(=O)CCCCCCCCCCCCCCC` [PtdIns(3,4,5)P3, phospatidylinositol (3,4,5)-trisphosphate], the phosphoinositide binding result in the test with GST-DAPP1 is “binds”; in test [4], “did not bind”; in test [7] it was “did not bind”; in [8], “did not bind”; in the test with GST-GRP1 it was “binds only”; in test [9] it was “moderate affinity”.
